Among the data in patent US20190375708A1 (VenatoRx Pharmaceuticals, Inc., priority 2018, published 2019) are CC50 and EC50 values, retold here.

Where only a bound is given, the exact number is not on record here.

Series [1] can be described thus: In vitro cytotoxicity assay (MTT cell viability) in HepG2 cells. The class given is cell-based, human. Particulars: human. An outline of the steps:
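Using MTT conversion as the viability measure, HepG2 cells were incubated with compounds for 7 days (30 μM to 1.0 nM). Absorbance at 492 nm was normalized to vehicle and fitted to give CC50.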

Series [2] concerns HBV replication in HepAD38 cells. Put plainly: Anti-HBV replication assay in HepAD38 cells (QPCR of extracellular HBV DNA). The class given is cell-based, HBV (genotype D, serotype ayw). The following applies: Hepatitis B virus, 168 h, 7 days incubation, extracellular HBV DNA by QPCR, read-out: Anti-HBV EC50. Summed up: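 HepAD38 cells (HepG2 carrying a tet-repressible HBV genotype D genome) were seeded in tetracycline-free medium and treated next day with compound […] for 7 days. Supernatant HBV DNA was measured by QPCR against a standard curve; EC50 came from 4-parameter fits of inhibition versus DMSO control.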

Regarding `Cc1cc(NC(=O)c2cc(C(=O)C(=O)NC[C@H](O)CO)n3c2CCCC3)ccc1F` [Example 416, (S)-3-(2-((2,3-dihydroxypropyl)amino)-2-oxoacetyl)-N-(4-fluoro-3-methylphenyl)-5,6,7,8-tetrahydroindolizine-1-carboxamide], in series [1], the CC50 at 7 days is greater than 30 µM. Moreover, the EC50 in series [2] was greater than 1000 nM.

Take `COc1c(C(=O)Nc2ccc(F)c(F)c2)c(C)n(C)c1C(=O)C(=O)N[C@@H]1CCC[C@@H]1O` [Example 384]: in series [1], the CC50 at 7 days is greater than 30 µM. Besides, the EC50 in series [2] was greater than 1000 nM.

Take `Cc1noc([C@@H](C)NC(=O)C(=O)c2c(Cl)c(C(=O)Nc3cnc(F)c(C)c3)c3n2CCCC3)n1` [Example 522, (R)-2-chloro-N-(6-fluoro-5-methylpyridin-3-yl)-3-(2-((1-(3-methyl-1,2,4-oxadiazol-5-yl)ethyl)amino)-2-oxoacetyl)-5,6,7,8-tetrahydroindolizine-1-carboxamide]: the CC50 at 7 days in series [1] is greater than 30 µM. Also, the EC50 in series [2] is greater than 1000 nM.

With `O=C(N[C@H]1C[C@H](O)C1)C(=O)c1c(Cl)c(C(=O)Nc2ccc(F)c(Cl)c2)c2n1CCCC2` [Example 531, 2-chloro-N-(3-chloro-4-fluorophenyl)-3-(2-(((1r,3r)-3-hydroxycyclobutyl)amino)-2-oxoacetyl)-5,6,7,8-tetrahydroindolizine-1-carboxamide], the CC50 at 7 days in series [1] is greater than 30 µM. Moreover, the EC50 in series [2] is 50 to 499 nM.

`Cc1cc(NC(=O)c2c(Cl)c(C(=O)C(=O)NCC(C)(C)O)n(C)c2C)ccc1F` [Example 364, 4-chloro-N-(4-fluoro-3-methylphenyl)-5-(2-((2-hydroxy-2-methylpropyl)amino)-2-oxoacetyl)-1,2-dimethyl-1H-pyrrole-3-carboxamide] showed a CC50 at 7 days in series [1] of 5 to 30 µM. Further, the EC50 in series [2] was less than 50 nM.

As to `Cc1csc(NC(=O)C(=O)c2c(C)c(C(=O)Nc3ccc(F)c(C)c3)c(C)n2C)n1` [Example 211, N-(4-fluoro-3-methylphenyl)-1,2,4-trimethyl-5-(2-((4-methylthiazol-2-yl)amino)-2-oxoacetyl)-1H-pyrrole-3-carboxamide], the CC50 at 7 days in series [1] was greater than 30 µM. The EC50 in series [2] was less than 50 nM.

For the compound `Cc1cc(NC(=O)c2cc(C(=O)C(=O)NC[C@@H](O)CO)n3c2CCCC3)ccc1F` [Example 415, (R)-3-(2-((2,3-dihydroxypropyl)amino)-2-oxoacetyl)-N-(4-fluoro-3-methylphenyl)-5,6,7,8-tetrahydroindolizine-1-carboxamide], the CC50 at 7 days in series [1] was greater than 30 µM. Also, the EC50 in series [2] is greater than 1000 nM.

In turn, `Cc1cc(NC(=O)c2c(C)c(C(=O)C(=O)NCC(C)(C)CO)n(C)c2C)ccc1F` [Example 65, N-(4-fluoro-3-methylphenyl)-5-(2-((3-hydroxy-2,2-dimethylpropyl)amino)-2-oxoacetyl)-1,2,4-trimethyl-1H-pyrrole-3-carboxamide] had a CC50 at 7 days in series [1] greater than 30 µM. Also, the EC50 in series [2] is less than 50 nM.

As for `Cc1cc(NC(=O)c2c(C)c(C(=O)C(=O)N[C@@H](C)C(F)(F)F)n3c2CCCC3)cnc1F` [Example 470, (S)-N-(6-fluoro-5-methylpyridin-3-yl)-2-methyl-3-(2-oxo-2-((1,1,1-trifluoropropan-2-yl)amino)acetyl)-5,6,7,8-tetrahydroindolizine--1 carboxamide], in series [1], the CC50 at 7 days lay in the range of 5 to 30 µM. Further, the EC50 in series [2] is 500 to 1000 nM.

Compound `Cc1cc(NC(=O)c2c(C)c(C(=O)C(=O)N[C@@H]3CCCN(S(C)(=O)=O)C3)n(C)c2C)ccc1F` [Example 640] showed a CC50 at 7 days in series [1] of 5 to 30 µM. For the same compound, in series [2], the EC50 is less than 50 nM.

In the case of `CCN(CC)CCNC(=O)C(=O)c1c(C)c(C(=O)Nc2ccc(F)c(C)c2)c(C)n1C` [Example 329, 5-(2-((2-(diethylamino)ethyl)amino)-2-oxoacetyl)-N-(4-fluoro-3-methylphenyl)-1,2,4-trimethyl-1H-pyrrole-3-carboxamide], the CC50 at 7 days in series [1] is greater than 30 µM. The EC50 in series [2] lay in the range of 500 to 1000 nM.

For `Cc1cc(NC(=O)c2c(C)c(C(=O)C(=O)NCCN3CCC(O)CC3)n(C)c2C)ccc1F` [Example 292, N-(4-fluoro-3-methylphenyl)-5-(2-((2-(4-hydroxypiperidin-1-yl)ethyl)amino)-2-oxoacetyl)-1,2,4-trimethyl-1H-pyrrole-3-carboxamide], in series [1], the CC50 at 7 days was greater than 30 µM. In addition, the EC50 in series [2] lay in the range of 50 to 499 nM.

The compound `Cc1cc(NC(=O)c2c(C)c(C(=O)C(=O)NC(C)(C)c3noc(CN(C)C)n3)n(C)c2C)ccc1F` [Example 154, 5-(2-((2-(5-((dimethylamino)methyl)-1,2,4-oxadiazol-3-yl)propan-2-yl)amino)-2-oxoacetyl)-N-(4-fluoro-3-methylphenyl)-1,2,4-trimethyl-1H-pyrrole-3-carboxamide] gave a CC50 at 7 days in series [1] greater than 30 µM. Also, the EC50 in series [2] is less than 50 nM.

Consider `Cc1cc(NC(=O)c2c(C)c(C(=O)C(=O)N[C@@H]3CCOC[C@H]3O)n(C)c2C)cnc1F` [Example 164, N-(6-fluoro-5-methylpyridin-3-yl)-5-(2-(((3S,4R)-3-hydroxytetrahydro-2H-pyran-4-yl)amino)-2-oxoacetyl)-1,2,4-trimethyl-1H-pyrrole-3-carboxamide], for which the CC50 at 7 days in series [1] was greater than 30 µM. Besides, the EC50 in series [2] lay in the range of 500 to 1000 nM.

On to `Cc1cc(NC(=O)c2cc(C(=O)C(=O)N[C@@H](C)C(F)(F)F)n3c2CCCC3)ccc1F` [Example 407, (S)-N-(4-fluoro-3-methylphenyl)-3-(2-oxo-2-((1,1,1-trifluoropropan-2-yl)amino)acetyl)-5,6,7,78-tetrahydroindolizine-1-carboxamide], for which the CC50 at 7 days in series [1] was greater than 30 µM. In addition, the EC50 in series [2] lay within 50 to 499 nM.

`Cc1nc(C2(NC(=O)C(=O)c3c(C)c(C(=O)Nc4ccc(F)c(C)c4)c(C)n3C)CCCCC2)no1` [Example 632, N-(4-fluoro-3-methylphenyl)-1,2,4-trimethyl-5-(2-((1-(5-methyl-1,2,4-oxadiazol-3-yl)cyclohexyl)amino)-2-oxoacetyl)-1H-pyrrole-3-carboxamide] displayed a CC50 at 7 days in series [1] greater than 30 µM. In series [2], the EC50 was less than 50 nM.

With `Cc1c(C(=O)Nc2ccc(F)c(F)c2)c2n(c1C(=O)C(=O)NC1(CO)CC1)CCCC2` [Example 463, N-(3,4-difluorophenyl)-3-(2-((1-(hydroxymethyl)cyclopropyl)amino)-2-oxoacetyl)-2-methyl-5,6,7,8-tetrahydroindolizine-1-carboxamide], the CC50 at 7 days in series [1] fell in the range of 5 to 30 µM. In series [2], the EC50 lay in the range of 50 to 499 nM.

Regarding `Cc1c(C(=O)Nc2cc(F)c(F)c(F)c2)c(C)n(C)c1C(=O)C(=O)Nc1ccc(F)nc1` [Example 321, 5-(2-((6-fluoropyridin-3-yl)amino)-2-oxoacetyl)-1,2,4-trimethyl-N-(3,4,5-trifluorophenyl)-1H-pyrrole-3-carboxamide], in series [1], the CC50 at 7 days was in the range of 5 to 30 µM. Further, the EC50 in series [2] was less than 50 nM.

Compound `Cc1cc(NC(=O)c2c(C)c(C(=O)C(=O)NC3(C)CCN(c4ncccn4)CC3)n(C)c2C)ccc1F` [Example 691, N-(4-fluoro-3-methylphenyl)-1,2,4-trimethyl-5-(2-((4-methyl-1-(pyrimidin-2-yl)piperidin-4-yl)amino)-2-oxoacetyl)-1H-pyrrole-3-carboxamide] displayed a CC50 at 7 days in series [1] greater than 30 µM. Besides, the EC50 in series [2] is less than 50 nM.

For the compound `Cc1c(C(=O)Nc2ccc(F)c(Cl)c2)c2n(c1C(=O)C(=O)NC1(CO)CC1)CCCC2` [Example 453, N-(3-chloro-4-fluorophenyl)-3-(2-((1-(hydroxymethyl)cyclopropyl)amino)-2-oxoacetyl)-2-methyl-5,6,7,8-tetrahydroindolizine-1-carboxamide], the CC50 at 7 days in series [1] was greater than 30 µM. For the same compound, in series [2], the EC50 was in the range of 50 to 499 nM.

Regarding `Cc1cc(NC(=O)c2cc(C(=O)C(=O)N3CCc4nc(N)sc4C3)n3c2CCCC3)ccc1F` [Example 421, 3-(2-(2-amino-6,7-dihydrothiazolo[5,4-c]pyridin-5(4H)-yl)-2-oxoacetyl)-N-(4-fluoro-3-methylphenyl)-5,6,7,8-tetrahydroindolizine-1-carboxamide], the CC50 at 7 days in series [1] was greater than 30 µM. In addition, in series [2], the EC50 is greater than 1000 nM.

Consider `Cc1c(C(=O)Nc2ccc(F)nc2)c(C)n(C)c1C(=O)C(=O)NC(C)(C)CO` [Example 120, N-(6-fluoropyridin-3-yl)-5-(2-((1-hydroxy-2-methylpropan-2-yl)amino)-2-oxoacetyl)-1,2,4-trimtehyl-1H-pyrrole-3-carboxamide], for which, in series [1], the CC50 at 7 days was greater than 30 µM. Moreover, in series [2], the EC50 fell in the range of 500 to 1000 nM.

On to `Cc1cc(NC(=O)c2c(Cl)c(C(=O)C(=O)N[C@H]3CCC[C@H]3O)n3c2CCC3)ccc1F` [Example 547, 6-chloro-N-(4-fluoro-3-methylphenyl)-5-(2-(((1S,2R)-2-hydroxycyclopentyl)amino)-2-oxoacetyl)-2,3-dihydro-1H-pyrrolizine-7-carboxamide], for which the CC50 at 7 days in series [1] was 5 to 30 µM. The EC50 in series [2] lay within 50 to 499 nM.

In series [1], `Cc1c(C(=O)Nc2ccc(F)c(F)c2)c(C)n(C)c1C(=O)C(=O)NC1(C(N)=O)CCCC1` [Example 147, 5-(2-((1-carbamoylcyclopentyl)amino)-2-oxoacetyl)-N-(3,4-difluorophenyl)-1,2,4-trimethyl-1H-pyrrole-3-carboxamide] showed a 50% cytotoxic concentration (CC50) at 7 days greater than 30 µM. Also, the EC50 in series [2] was less than 50 nM.

`Cc1cc(NC(=O)c2c(C)c(C(=O)C(=O)N[C@@H]3CCOC[C@H]3O)n(CCF)c2C)ccc1F` [Example 196, N-(4-fluoro-3-methylphenyl)-1-(2-fluoroethyl)-5-(2-(((3S,4R)-3-hydroxytetrahydro-2H-pyran-4-yl)amino)-2-oxoacetyl)-2,4-dimethyl-1H-pyrrole-3-carboxamide]: in series [1], the CC50 at 7 days was greater than 30 µM. In series [2], the EC50 was in the range of 50 to 499 nM.

What is called CC50 is the concentration that lowers cell viability or growth by half. Low readings indicate greater toxicity to the cells, high ones lower toxicity to the cells. Usually EC50 stands for the concentration at which the effect is half-maximal.
